Measurements published in US8163743B2, “4-carboxamide indazole derivatives useful as inhibitors of PI3-kinases” (GlaxoGroupLimited, priority 2008, dated 2012).

Key:
[1] = tested on: IFN-γ or IL-5 production in human PBMC; test: Inhibition of Interferon-Gamma (IFN-γ) or IL-5 production in human PBMC assay (MSD technology); format: cell-based; conditions: human PBMC assay or a similar assay; CYTOSTIM stimulation, 20 hours; read-out: mean pIC50 (converted)
Method: Inhibition of Interferon-Gamma (IFN-γ) or IL-5 Production in Human PBMC (Peripheral Blood Mononuclear Cell) Assay (MSD Technology)
A 96-well plate (96 MicroWell™ Plates Nunclon™—High Flange Design, Fisher Scientific UK, Loughborough, UK) is prepared by initially adding to column 1 ca. 10 mM of test compound dissolved in DMSO. […] The compound is further diluted with DMSO into columns 2 to 9 by 8 successive 4-fold dilutions using the Biomek® 2000 Laboratory Automation Workstation (Beckman Coulter, Inc., Fullerton, Calif.). Column 10 is used as a DMSO negative control (High Signal, 0% response), whilst column 11, which contains 10 mM of the pan-PI3K inhibitor wortmannin, is used as a positive control (Low Signal, 100% response). About 1 μl of compound is transferred to the compound plate using the Biomek® FX.
PBMC cells (peripheral blood mononuclear cells) are prepared from heparinised human blood (using 1% v/v Heparin Sodium 10001 U/ml Endotoxin Free, Leo Laboratories Ltd., Dublin. Ireland, Cat No: PL0043/0149) from normal volunteers using the Accuspin™ System-Histopaque®-1077 essentially (Sigma-Aldrich Company Ltd., Gillingham Dorset, UK). About 20 ml of blood is overlaid onto 15 ml Histopaque® in Accuspin™ tubes. The tube is then centrifuged at about 800 g for ca. 20 minutes. The cells are collected from the interface, washed by centrifugation (ca. 1300 g, ca. 10 minutes) and resuspended in assay medium (Low endotoxin RPMI1640 medium, Cat No: 31870-025, Invitrogen Corporation Invitrogen Ltd, Paisley, UK) containing 10% foetal calf serum (Invitrogen Corporation, Cat No: CT2507), 2 mM L-glutamine (Invitrogen Corporation, Cat No: 25030024), 10 U/ml penicillin and 10 μg/ml streptomycin (Invitrogen Corporation, Cat No: 15140-122). Viable cells are counted by trypan blue staining and diluted to 6.6×10^5 viable cells/ml. About 150 μl of diluted cells are then added to the compound plate and incubated 37 degrees C. for 1 hour prior to addition of 50 μl of 0.125% (v/v) CYTOSTIM (Cat No: 130-092-173, Miltenyi Biotec Ltd., Bisley, Surrey, UK) diluted in assay medium. The assay plate is then incubated at 37° C., 5% CO2, for 20 hours. The supernatant is removed and the concentrations of IFN-γ and IL-5 are determined by electrochemiluminescence assay using the Meso Scale Discovery (MSD) technology (Meso Scale Discovery, Gaithersburg, Md., USA) as described below.
Supernants were assayed using MSD (Meso Scale Discovery) technology using either the ultra sensitive IFN-γ single plex or the IFN-γ/IL-5 multiplex 96-well plates (MA6000). For the IL-5/IFNg multiplex, Human Serum Cytokine Assay Diluent (25 μl) is added to the plates precoated with anti-cytokine antibody and then incubated for 24 hours at 4° C. to prevent non-specific binding. This blocking step is not required for the Ultrasensitive IFN-γ plates. About 25 μl of supernatant from the PBMC plate is then transferred from columns 1-11 to columns 1-11 of the MSD plate using the Biomek FX. About 25 μl of standard (IFN-γ Cat No. Calibrator C0AE, IL-5 Cat No. Calibrator C01AJ, Meso Scale Discovery) are added to column 12 of the MSD plate to generate a standard calibration curve (about 0 to 10000 pg/ml final). Plates are washed after 2 hours shaking with a Skanwasher 300 version B (Skatron Instruments AS. PO Box 8, N-3401 Lier, Norway). […] About 150 μl of Read Buffer T (2×) is added to the plates, which are then read on a MSD Sector 6000. […]

[2] = biological target: CK2 protein kinase (Homo sapiens, UniProt P68400); conditions: background, literature; cited from earlier work
CK2 protein kinase, sequence (P68400 whole entry): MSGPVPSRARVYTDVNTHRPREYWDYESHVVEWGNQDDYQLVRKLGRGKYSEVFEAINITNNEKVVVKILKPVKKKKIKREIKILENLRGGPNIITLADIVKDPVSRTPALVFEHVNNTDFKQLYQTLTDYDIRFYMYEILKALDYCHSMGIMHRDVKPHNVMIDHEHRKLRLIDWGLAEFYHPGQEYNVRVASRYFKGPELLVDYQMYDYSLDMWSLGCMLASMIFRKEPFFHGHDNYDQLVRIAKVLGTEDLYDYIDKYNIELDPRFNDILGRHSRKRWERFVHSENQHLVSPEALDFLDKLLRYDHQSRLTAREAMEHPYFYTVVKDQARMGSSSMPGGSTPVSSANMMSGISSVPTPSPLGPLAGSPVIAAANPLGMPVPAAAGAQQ

Structure (SMILES)	IC50 [1]	also measured
COc1ncc(-c2cc(NC(=O)c3csc(CN4C[C@@H](C)O[C@@H](C)C4)n3)c3cnn(C)c3c2)cc1NS(C)(=O)=O [2-{[(2R,6S)-2,6-dimethyl-4-morpholinyl]methyl}-N-(1-methyl-6-{6-(methyloxy)-5-[(methylsulfonyl)amino]-3-pyridinyl}-1H-indazol-4-yl)-1,3-thiazole-4-carboxamide]	≤ 10 µM	–
COc1ncc(-c2cc(NC(=O)c3csc(CN4C[C@@H](C)O[C@@H](C)C4)n3)c3cn[nH]c3c2)cc1NS(C)(=O)=O [2-{[(2R,6S)-2,6-dimethyl-4-morpholinyl]methyl}-N-(6-{6-(methyloxy)-5-[(methylsulfonyl)amino]-3-pyridinyl}-1H-indazol-4-yl)-1,3-thiazole-4-carboxamide]	≤ 10 µM	–
COc1ncc(-c2cc(NC(=O)c3csc(CN4C[C@@H](C)O[C@@H](C)C4)n3)c3cn[nH]c3c2)cc1NS(=O)(=O)CC(F)(F)F [2-{[(2R,6S)-2,6-dimethyl-4-morpholinyl]methyl}-N-[6-(6-(methyloxy)-5-{[(2,2,2-trifluoroethyl)sulfonyl]amino}-3-pyridinyl)-1H-indazol-4-yl]-1,3-thiazole-4-carboxamide]	≤ 10 µM	–
COc1ccccc1S(=O)(=O)Nc1cc(-c2cc(NC(=O)c3csc(CN4C[C@@H](C)O[C@@H](C)C4)n3)c3cn[nH]c3c2)cnc1OC [2-{[(2R,6S)-2,6-dimethyl-4-morpholinyl]methyl}-N-{6-[6-(methyloxy)-5-({[2-(methyloxy)phenyl]sulfonyl}amino)-3-pyridinyl]-1H-indazol-4-yl}-1,3-thiazole-4-carboxamide]	≤ 10 µM	–
COc1ncc(-c2cc(NC(=O)c3csc(CN4C[C@@H](C)O[C@@H](C)C4)n3)c3cn[nH]c3c2)cc1NS(=O)(=O)c1ccc(F)cc1F [Example 94, N-{6-[5-{[(2,4-Difluorophenyl)sulfonyl]amino}-6-(methyloxy)-3-pyridinyl]-1H-indazol-4-yl}-2-{[(2R,6S)-2,6-dimethyl-4-morpholinyl]methyl}-1,3-thiazole-4-carboxamide]	–	melting point: 211 to 212 °C
O=c1cc(N2CCOCC2)oc2c(-c3ccccc3)cccc12 [LY294002]	–	IC50 [2]: 5 to 10 µM
COc1ncc(-c2cc(NC(=O)c3csc(CN4C[C@@H](C)O[C@@H](C)C4)n3)c3cn[nH]c3c2)cc1NS(=O)(=O)c1ccc(F)cc1F [N-{6-[5-{[(2,4-difluorophenyl)sulfonyl]amino}-6-(methyloxy)-3-pyridinyl]-1H-indazol-4-yl}-2-{[(2R,6S)-2,6-dimethyl-4-morpholinyl]methyl}-1,3-thiazole-4-carboxamide]	≤ 10 µM	–
